# Target: recombinant Mcl-1 (residues 172-327) (Homo sapiens (Human), UniProt Q07820)
# Test: Bak peptide binding assay, fluorescence polarization anisotropy competition (FITC-Bak), Mcl-1;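 note: displacement of labeled Bak peptide read by fluorescence anisotropy, 10-point threefold dilutions from 20 µM top dose in 5% DMSO, 90 min incubation at room temperature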
# Details: Table 3, binned ranges; FITC-Bak peptide 10 nM, Mcl-1 14 nM; read-out: Ki for inhibition of Mcl-1
# Method: Bak Peptide Binding Assay
# Compound affinity was measured using a fluorescence polarization anisotropy competition assay. Anisotropy measurements were carried out in 384-well, black, flat-bottom plates (Greiner Bio-one, Monroe, N.C., USA). […] 10 nM FITC-Bak peptide and 14 nM recombinant Mcl-1 (residues 172-327) were added to assay buffer (3 mM dithiothreitol, 50 mM NaCl, 20 mM Tris, pH 7.5).
# Compounds are diluted in DMSO in a 10-point, 3-fold serial dilution scheme. 2.5 uL compound is added to 47.5 uL of assay buffer containing FITC-Bak and protein, for a final DMSO concentration of 5% and a top concentration of 20 uM. […] The plate was mixed and incubated for 90 minutes at room temperature. Anisotropy is measured at excitation wavelength 480 nm and emission wavelength 535 nm using an EnVision Multi-label plate reader (PerkinElmer, Wellesley, Mass., USA).
# Chain of recombinant Mcl-1 (residues 172-327) (Q07820 172-327): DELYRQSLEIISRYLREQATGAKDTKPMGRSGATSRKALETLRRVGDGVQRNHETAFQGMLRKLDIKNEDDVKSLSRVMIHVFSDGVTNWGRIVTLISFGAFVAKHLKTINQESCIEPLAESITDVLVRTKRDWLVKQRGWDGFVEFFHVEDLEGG
row,Ki [nM],Structure (SMILES)
1,101 to 299,"Cc1cc(OCCCc2c(C)n(CC(=O)O)c3c(-c4ccnn4C)cccc23)cc(C)c1Cl [Example 64, 2-(3-(3-(4-chloro-3,5-dimethylphenoxy)propyl)-2-methyl-7-(1-methyl-1H-pyrazol-5-yl)-1H-indol-1-yl)acetic acid]"
2,101 to 299,"Cc1cc(OCCCc2c(C)n(CC(=O)O)c3c(-c4c(C)noc4C)cccc23)cc(C)c1Cl [Example 66, 2-(3-(3-(4-chloro-3,5-dimethylphenoxy)propyl)-7-(3,5-dimethylisoxazol-4-yl)-2-methyl-1H-indol-1-yl)acetic acid]"
3,101 to 299,Cc1cnccc1-c1cccc2c(CCCOc3cc(C)c(Cl)c(C)c3)c(C)n(CC(=O)O)c12 [Example 67]
4,101 to 299,"Cc1cc(OCCCc2c(C)n(CC(=O)O)c3c(-c4cccn4C)cccc23)cc(C)c1Cl [Example 68, 2-(3-(3-(4-chloro-3,5-dimethylphenoxy)propyl)-2-methyl-7-(1-methyl-1H-pyrrol-2-yl)-1H-indol-1-yl)acetic acid]"
5,≤ 100,"Cc1cnccc1-c1cccc2c(CCCOc3cc(C)c(Cl)c(C)c3)c(C)n(CCC(=O)O)c12 [Example 72, 3-(3-(3-(4-chloro-3,5-dimethylphenoxy)propyl)-2-methyl-7-(3-methylpyridin-4-yl)-1H-indol-1-yl)propanoic acid]"
6,≤ 100,"Cc1cc(OCCCc2c(C)n(CCC(=O)O)c3c(-c4cccn4C)cccc23)cc(C)c1Cl [Example 73, 3-(3-(3-(4-chloro-3,5-dimethylphenoxy)propyl)-2-methyl-7-(1-methyl-1H-pyrrol-2-yl)-1H-indol-1-yl)propanoic acid]"
7,≤ 100,"Cc1cc(OCCCc2c(C)n(CCC(=O)O)c3c(-c4cccnc4C)cccc23)cc(C)c1Cl [Example 75, 3-(3-(3-(4-chloro-3,5-dimethylphenoxy)propyl)-2-methyl-7-(2-methylpyridin-3-yl)-1H-indol-1-yl)propanoic acid]"
8,≤ 100,"CCn1nc(C)c(-c2cccc3c(CCCOc4cc(C)c(Cl)c(C)c4)c(C)n(CCC(=O)O)c23)c1C [Example 77, 3-(3-(3-(4-chloro-3,5-dimethylphenoxy)propyl)-7-(1-ethyl-3,5-dimethyl-1H-pyrazol-4-yl)-2-methyl-1H-indol-1-yl)propanoic acid]"
9,≤ 100,"Cc1cc(OCCCc2c(C)n(CCC(=O)O)c3c(-c4c(C)nn(CCN5CCOCC5)c4C)cccc23)cc(C)c1Cl [Example 79, 3-(3-(3-(4-chloro-3,5-dimethylphenoxy)propyl)-7-(3,5-dimethyl-1-(2-morpholinoethyl)-1H-pyrazol-4-yl)-2-methyl-1H-indol-1-yl)propanoic acid]"
10,≤ 100,"Cc1cc(OCCCc2c(C)n(CCC(=O)O)c3c(-c4c(C)nn(CCN5CCCC5)c4C)cccc23)cc(C)c1Cl [Example 80, 3-(3-(3-(4-chloro-3,5-dimethylphenoxy)propyl)-7-(3,5-dimethyl-1-(2-(pyrrolidin-1-yl)ethyl)-1H-pyrazol-4-yl)-2-methyl-1H-indol-1-yl)propanoic acid]"
11,≤ 100,"Cc1cc(OCCCc2c(C)n(CCC(=O)NS(C)(=O)=O)c3c(-c4ccnn4C)cccc23)cc(C)c1Cl [Example 81, 3-(3-(3-(4-chloro-3,5-dimethylphenoxy)propyl)-2-methyl-7-(1-methyl-1H-pyrazol-5-yl)-1H-indol-1-yl)-N-(methylsulfonyl)propanamide]"
12,≤ 100,"Cc1ccncc1-c1cccc2c(CCCOc3cc(C)c(Cl)c(C)c3)c(C)n(CCC(=O)NS(C)(=O)=O)c12 [Example 82, 3-(3-(3-(4-chloro-3,5-dimethylphenoxy)propyl)-2-methyl-7-(4-methylpyridin-3-yl)-1H-indol-1-yl)-N-(methylsulfonyl)propanamide]"
13,≤ 100,"Cc1cc(OCCCc2c(C)n(CCC(=O)NS(C)(=O)=O)c3c(-c4cccn4C)cccc23)cc(C)c1Cl [Example 84, 3-(3-(3-(4-chloro-3,5-dimethylphenoxy)propyl)-2-methyl-7-(1-methyl-1H-pyrrol-2-yl)-1H-indol-1-yl)-N-(methylsulfonyl)propanamide]"
14,≤ 100,"Cc1cc(OCCCc2c(C)n(CCC(=O)NS(C)(=O)=O)c3c(-c4c(C)nn(C)c4C)cccc23)cc(C)c1Cl [Example 85, 3-(3-(3-(4-chloro-3,5-dimethylphenoxy)propyl)-2-methyl-7-(1,3,5-trimethyl-1H-pyrazol-4-yl)-1H-indol-1-yl)-N-(methylsulfonyl)propanamide]"
15,≤ 100,"CCn1nc(C)c(-c2cccc3c(CCCOc4cc(C)c(Cl)c(C)c4)c(C)n(CCC(=O)NS(C)(=O)=O)c23)c1C [Example 86, 3-(3-(3-(4-chloro-3,5-dimethylphenoxy)propyl)-7-(1-ethyl-3,5-dimethyl-1H-pyrazol-4-yl)-2-methyl-1H-indol-1-yl)-N-(methylsulfonyl)propanamide]"
16,≤ 100,"CCn1nc(C)c(-c2cccc3c(CCCOc4cc(C)c(Cl)c(C)c4)c(C)n(CCC(=O)NS(=O)(=O)c4ccccc4)c23)c1C [Example 87, 3-(3-(3-(4-chloro-3,5-dimethylphenoxy)propyl)-7-(1-ethyl-3,5-dimethyl-1H-pyrazol-4-yl)-2-methyl-1H-indol-1-yl)-N-(phenylsulfonyl)propanamide]"
17,≤ 100,"Cc1cc(OCCCc2c(C)n(CCC(=O)NS(=O)(=O)Cc3ccccc3)c3c(-c4c(C)nn(C)c4C)cccc23)cc(C)c1Cl [Example 88, N-(benzylsulfonyl)-3-(3-(3-(4-chloro-3,5-dimethylphenoxy)propyl)-2-methyl-7-(1,3,5-trimethyl-1H-pyrazol-4-yl)-1H-indol-1-yl)propanamide]"
18,≤ 100,"Cc1cc(OCCCc2c(C)n(CCC(=O)NS(=O)(=O)c3ccc4ccccc4c3)c3c(-c4c(C)nn(C)c4C)cccc23)cc(C)c1Cl [Example 89, 3-(3-(3-(4-chloro-3,5-dimethylphenoxy)propyl)-2-methyl-7-(1,3,5-trimethyl-1H-pyrazol-4-yl)-1H-indol-1-yl)-N-(naphthalen-2-ylsulfonyl)propanamide]"
19,≤ 100,"Cc1cc(OCCCc2c(C)n(CCC(=O)NS(=O)(=O)c3ccc(Oc4ccccc4)cc3)c3c(-c4c(C)nn(C)c4C)cccc23)cc(C)c1Cl [Example 90, 3-(3-(3-(4-chloro-3,5-dimethylphenoxy)propyl)-2-methyl-7-(1,3,5-trimethyl-1H-pyrazol-4-yl)-1H-indol-1-yl)-N-((4-phenoxyphenyl)sulfonyl)propanamide]"
20,≤ 100,"Cc1cc(OCCCc2c(C)n(CCC(=O)NS(=O)(=O)c3ccccc3[N+](=O)[O-])c3c(-c4c(C)nn(C)c4C)cccc23)cc(C)c1Cl [Example 91, 3-(3-(3-(4-chloro-3,5-dimethylphenoxy)propyl)-2-methyl-7-(1,3,5-trimethyl-1H-pyrazol-4-yl)-1H-indol-1-yl)-N-((2-nitrophenyl)sulfonyl)propanamide]"
21,≤ 100,"Cc1cc(OCCCc2c(C)n(CCC(=O)NS(=O)(=O)c3cccc([N+](=O)[O-])c3)c3c(-c4c(C)nn(C)c4C)cccc23)cc(C)c1Cl [Example 92, 3-(3-(3-(4-chloro-3,5-dimethylphenoxy)propyl)-2-methyl-7-(1,3,5-trimethyl-1H-pyrazol-4-yl)-1H-indol-1-yl)-N-((3-nitrophenyl)sulfonyl)propanamide]"
22,≤ 100,"Cc1cc(OCCCc2c(C)n(CCC(=O)NS(=O)(=O)c3ccc([N+](=O)[O-])cc3)c3c(-c4c(C)nn(C)c4C)cccc23)cc(C)c1Cl [Example 93, 3-(3-(3-(4-chloro-3,5-dimethylphenoxy)propyl)-2-methyl-7-(1,3,5-trimethyl-1H-pyrazol-4-yl)-1H-indol-1-yl)-N-((4-nitrophenyl)sulfonyl)propanamide]"
23,≤ 100,"Cc1cc(OCCCc2c(C)n(CCC(=O)NS(=O)(=O)c3ccccn3)c3c(-c4c(C)nn(C)c4C)cccc23)cc(C)c1Cl [Example 94, 3-(3-(3-(4-chloro-3,5-dimethylphenoxy)propyl)-2-methyl-7-(1,3,5-trimethyl-1H-pyrazol-4-yl)-1H-indol-1-yl)-N-(pyridin-2-ylsulfonyl)propanamide]"
24,≤ 100,"Cc1cc(OCCCc2c(C)n(CCC(=O)NS(=O)(=O)c3cccnc3)c3c(-c4c(C)nn(C)c4C)cccc23)cc(C)c1Cl [Example 95, 3-(3-(3-(4-chloro-3,5-dimethylphenoxy)propyl)-2-methyl-7-(1,3,5-trimethyl-1H-pyrazol-4-yl)-1H-indol-1-yl)-N-(pyridin-3-ylsulfonyl)propanamide]"
25,≤ 100,"Cc1cc(OCCCc2c(C)n(CCC(=O)NS(=O)(=O)c3ccncc3)c3c(-c4c(C)nn(C)c4C)cccc23)cc(C)c1Cl [Example 96, 3-(3-(3-(4-chloro-3,5-dimethylphenoxy)propyl)-2-methyl-7-(1,3,5-trimethyl-1H-pyrazol-4-yl)-1H-indol-1-yl)-N-(pyridin-4-ylsulfonyl)propanamide]"
26,1000 to 9990,"Cc1cc(OCCCc2c(C)n(Cc3ccccc3C(=O)O)c3c(-c4c(C)n[nH]c4C)cccc23)cc(C)c1Cl [Example 97, 2-((3-(3-(4-chloro-3,5-dimethylphenoxy)propyl)-7-(3,5-dimethyl-1H-pyrazol-4-yl)-2-methyl-1H-indol-1-yl)methyl)benzoic acid]"
27,≤ 100,"Cc1cc(OCCCc2c(C)n(Cc3ccc(C(=O)O)cc3)c3c(-c4c(C)n[nH]c4C)cccc23)cc(C)c1Cl [Example 98, 4-((3-(3-(4-chloro-3,5-dimethylphenoxy)propyl)-7-(3,5-dimethyl-1H-pyrazol-4-yl)-2-methyl-1H-indol-1-yl)methyl)benzoic acid]"
28,≤ 100,"Cc1cc(OCCCc2c(C)n(Cc3cccc(C(=O)O)c3)c3c(-c4c(C)nn(C)c4C)c(Cl)ccc23)cc(C)c1Cl [Example 102, 3-((6-chloro-3-(3-(4-chloro-3,5-dimethylphenoxy)propyl)-2-methyl-7-(1,3,5-trimethyl-1H-pyrazol-4-yl)-1H-indol-1-yl)methyl)benzoic acid]"
29,≤ 100,"Cc1cc(OCCCc2c(C)n(Cc3ccc(CC(=O)O)cc3)c3c(-c4c(C)nn(C)c4C)c(Cl)ccc23)cc(C)c1Cl [Example 103, 2-(4-((6-chloro-3-(3-(4-chloro-3,5-dimethylphenoxy)propyl)-2-methyl-7-(1,3,5-trimethyl-1H-pyrazol-4-yl)-1H-indol-1-yl)methyl)phenyl)acetic acid]"
